ChEMBL document CHEMBL3885881, “DrugMatrix”

Organism: Rattus norvegicus
Experiment: DrugMatrix - Regimen: Daily Repeat
Type: toxicity, organism-based, Sprague-Dawley
Design: regimen Daily Repeat, gender Male, age 6-8 weeks
Settings: in vivo, po, route oral GAVAGE, vehicle .5 % CMC; for ABSOLUTE BASOPHIL / ABSOLUTE EOSINOPHIL / ABSOLUTE LYMPHOCYTE / ABSOLUTE MONOCYTE / ABSOLUTE SEGMENTED NEUTROPHIL / BASOPHIL / EOSINOPHIL / ERYTHROCYTE COUNT / HEMATOCRIT / HEMOGLOBIN / LEUKOCYTE COUNT / LYMPHOCYTE / MEAN CORPUSCULAR HEMOGLOBIN / MEAN CORPUSCULAR HEMOGLOBIN CONCENTRATION / MEAN CORPUSCULAR VOLUME / MONOCYTE / NEUTROPHIL / NUCLEATED RED BLOOD CELLS / PLATELET COUNT: tissue Blood; for ALANINE AMINOTRANSFERASE / ALBUMIN / ALKALINE PHOSPHATASE / ASPARTATE AMINOTRANSFERASE / BLOOD UREA NITROGEN / CARBON DIOXIDE / CHLORIDE / CHOLESTEROL / CREATINE PHOSPHOKINASE / CREATININE / GLUCOSE / LACTATE DEHYDROGENASE / LIPASE / PHOSPHORUS / POTASSIUM / SODIUM / TOTAL BILIRUBIN / TOTAL PROTEIN / URIC ACID: tissue Plasma
[1] = 100 mg/kg, 120 h, dose level Low, time 5 day
[2] = 501 mg/kg, 72 h, dose level High, time 3 day
[3] = 501 mg/kg, 120 h, dose level High, time 5 day

CCc1ccc(C(=O)C(C)CN2CCCCC2)cc1 (centres undefined) [EPERISONE]
ABSOLUTE BASOPHIL [1]: 0 CELLS/uL
ABSOLUTE EOSINOPHIL [1]: 0 CELLS/uL
ABSOLUTE LYMPHOCYTE [1]: 13749 CELLS/uL
ABSOLUTE MONOCYTE [1]: 246.33 CELLS/uL
ABSOLUTE SEGMENTED NEUTROPHIL [1]: 1338 CELLS/uL
BASOPHIL [1]: 0%
EOSINOPHIL [1]: 0%
ERYTHROCYTE COUNT [1]: 5.46 x10E6/uL
HEMATOCRIT [1]: 34.27%
HEMOGLOBIN [1]: 13.2 G/DL
LEUKOCYTE COUNT [1]: 15.33 x10E3/uL
LYMPHOCYTE [1]: 89.67%
MEAN CORPUSCULAR HEMOGLOBIN [1]: 24.17 pg
MEAN CORPUSCULAR HEMOGLOBIN CONCENTRATION [1]: 38.53 G/DL
MEAN CORPUSCULAR VOLUME [1]: 62.83 fL
MONOCYTE [1]: 1.67%
NEUTROPHIL [1]: 8.67%
NUCLEATED RED BLOOD CELLS [1]: 0 /100WBC
PLATELET COUNT [1]: 1278.33 x10E3/uL
ALANINE AMINOTRANSFERASE [1]: 50 u/L
ALBUMIN [1]: 4.27 G/DL
ALKALINE PHOSPHATASE [1]: 325.67 u/L
ASPARTATE AMINOTRANSFERASE [1]: 101.33 u/L
BLOOD UREA NITROGEN [1]: 17.33 mg/dL
CARBON DIOXIDE [1]: 25.33 mmol/L
CHLORIDE [1]: 106 MEQ/L
CHOLESTEROL [1]: 66.33 mg/dL
CREATINE PHOSPHOKINASE [1]: 609 u/L
CREATININE [1]: 0.21 mg/dL
GLUCOSE [1]: 159 mg/dL
LACTATE DEHYDROGENASE [1]: 465 u/L
LIPASE [1]: 9.67 u/L
PHOSPHORUS [1]: 13.17 mg/dL
POTASSIUM [1]: 6.21 MEQ/L
SODIUM [1]: 144.2 MEQ/L
TOTAL BILIRUBIN [1]: 0.13 mg/dL
TOTAL PROTEIN [1]: 5.9 G/DL
URIC ACID [1]: 1.77 mg/dL
ABSOLUTE BASOPHIL [2]: 0 CELLS/uL
ABSOLUTE EOSINOPHIL [2]: 0 CELLS/uL
ABSOLUTE LYMPHOCYTE [2]: 13225.33 CELLS/uL
ABSOLUTE MONOCYTE [2]: 319.33 CELLS/uL
ABSOLUTE SEGMENTED NEUTROPHIL [2]: 888.67 CELLS/uL
BASOPHIL [2]: 0%
EOSINOPHIL [2]: 0%
ERYTHROCYTE COUNT [2]: 5.61 x10E6/uL
HEMATOCRIT [2]: 35.1%
HEMOGLOBIN [2]: 13.27 G/DL
LEUKOCYTE COUNT [2]: 14.43 x10E3/uL
LYMPHOCYTE [2]: 91.33%
MEAN CORPUSCULAR HEMOGLOBIN [2]: 23.63 pg
MEAN CORPUSCULAR HEMOGLOBIN CONCENTRATION [2]: 37.83 G/DL
MEAN CORPUSCULAR VOLUME [2]: 62.53 fL
MONOCYTE [2]: 2.33%
NEUTROPHIL [2]: 6.33%
NUCLEATED RED BLOOD CELLS [2]: 0 /100WBC
PLATELET COUNT [2]: 1433.33 x10E3/uL
ALANINE AMINOTRANSFERASE [2]: 58.67 u/L
ALBUMIN [2]: 3.97 G/DL
ALKALINE PHOSPHATASE [2]: 399 u/L
ASPARTATE AMINOTRANSFERASE [2]: 91.67 u/L
BLOOD UREA NITROGEN [2]: 14.33 mg/dL
CARBON DIOXIDE [2]: 25 mmol/L
CHLORIDE [2]: 103.67 MEQ/L
CHOLESTEROL [2]: 64.67 mg/dL
CREATINE PHOSPHOKINASE [2]: 345 u/L
CREATININE [2]: 0.23 mg/dL
GLUCOSE [2]: 157.67 mg/dL
LACTATE DEHYDROGENASE [2]: 414.67 u/L
LIPASE [2]: 9 u/L
PHOSPHORUS [2]: 11.17 mg/dL
POTASSIUM [2]: 6.18 MEQ/L
SODIUM [2]: 143.13 MEQ/L
TOTAL BILIRUBIN [2]: 0.2 mg/dL
TOTAL PROTEIN [2]: 5.33 G/DL
URIC ACID [2]: 2.03 mg/dL
ABSOLUTE BASOPHIL [3]: 0 CELLS/uL
ABSOLUTE EOSINOPHIL [3]: 46.67 CELLS/uL
ABSOLUTE LYMPHOCYTE [3]: 15630.33 CELLS/uL
ABSOLUTE MONOCYTE [3]: 287 CELLS/uL
ABSOLUTE SEGMENTED NEUTROPHIL [3]: 969.33 CELLS/uL
BASOPHIL [3]: 0%
EOSINOPHIL [3]: 0.33%
ERYTHROCYTE COUNT [3]: 5.98 x10E6/uL
HEMATOCRIT [3]: 36.77%
HEMOGLOBIN [3]: 13.93 G/DL
LEUKOCYTE COUNT [3]: 16.93 x10E3/uL
LYMPHOCYTE [3]: 92.33%
MEAN CORPUSCULAR HEMOGLOBIN [3]: 23.33 pg
MEAN CORPUSCULAR HEMOGLOBIN CONCENTRATION [3]: 37.93 G/DL
MEAN CORPUSCULAR VOLUME [3]: 61.5 fL
MONOCYTE [3]: 1.67%
NEUTROPHIL [3]: 5.67%
NUCLEATED RED BLOOD CELLS [3]: 0 /100WBC
PLATELET COUNT [3]: 1391 x10E3/uL
ALANINE AMINOTRANSFERASE [3]: 69 u/L
ALBUMIN [3]: 4.43 G/DL
ALKALINE PHOSPHATASE [3]: 394.33 u/L
ASPARTATE AMINOTRANSFERASE [3]: 96.33 u/L
BLOOD UREA NITROGEN [3]: 16 mg/dL
CARBON DIOXIDE [3]: 28 mmol/L
CHLORIDE [3]: 106.33 MEQ/L
CHOLESTEROL [3]: 63.33 mg/dL
CREATINE PHOSPHOKINASE [3]: 1265 u/L
CREATININE [3]: 0.3 mg/dL
GLUCOSE [3]: 145.67 mg/dL
LACTATE DEHYDROGENASE [3]: 187.33 u/L
LIPASE [3]: 9.33 u/L
PHOSPHORUS [3]: 12.2 mg/dL
POTASSIUM [3]: 6.24 MEQ/L
SODIUM [3]: 145.8 MEQ/L
TOTAL BILIRUBIN [3]: 0.2 mg/dL
TOTAL PROTEIN [3]: 6.07 G/DL
URIC ACID [3]: 1.97 mg/dL
